This passage reports IC50 results from US20230295119A1, “SUBSTITUTED PYRIDINES FOR THE TREATMENT OF INFLAMMATORY DISEASES” (GOSSAMER BIO SERVICES, INC., priority 2020, published 2023).

Structures are written as SMILES.

For one assay, the target named is human JAK1 (Homo sapiens (Human), UniProt P23458). The assay can be described thus: JAK1 TR-FRET kinase assay. The assay is classed as biochemical. Conditions: TR-FRET, JAK1 2.5 nM. On the technique in general: TR-FRET usually uses a lanthanide donor and a delayed reading to cut background.
Another assay deals with human JAK2 (Homo sapiens (Human), UniProt O60674). As to the kind of experiment: JAK2 TR-FRET kinase assay. The assay is classed as biochemical. The conditions noted are these: JAK2 0.025 nM.
Another assay concerns the target TYK2 JH2 domain (Homo sapiens (Human), UniProt P29597). As to the kind of experiment: TYK2 JH2 NanoBRET assay. The assay is classed as binding. The conditions noted are these: Table 20, read-out: TYK2 IC50. The essentials:
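Tracer displacement measured by BRET ratio (acceptor over donor) in live HEK293T cells transfected with a NanoLuc-tagged TYK2 JH2 construct; cells co-exposed to test compound and 0.5 µM final K10 tracer for 2 h before substrate/extracellular inhibitor addition.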
In general terms: BRET reads energy transfer from a luciferase to a nearby fluorophore.

The target of the next assay is human JAK3 (Homo sapiens (Human), UniProt P52333). As to the kind of experiment: JAK3 TR-FRET kinase assay. The assay is classed as biochemical. The conditions noted are these: JAK3 0.0125 nM.
Chain of human JAK3 (P52333 whole entry): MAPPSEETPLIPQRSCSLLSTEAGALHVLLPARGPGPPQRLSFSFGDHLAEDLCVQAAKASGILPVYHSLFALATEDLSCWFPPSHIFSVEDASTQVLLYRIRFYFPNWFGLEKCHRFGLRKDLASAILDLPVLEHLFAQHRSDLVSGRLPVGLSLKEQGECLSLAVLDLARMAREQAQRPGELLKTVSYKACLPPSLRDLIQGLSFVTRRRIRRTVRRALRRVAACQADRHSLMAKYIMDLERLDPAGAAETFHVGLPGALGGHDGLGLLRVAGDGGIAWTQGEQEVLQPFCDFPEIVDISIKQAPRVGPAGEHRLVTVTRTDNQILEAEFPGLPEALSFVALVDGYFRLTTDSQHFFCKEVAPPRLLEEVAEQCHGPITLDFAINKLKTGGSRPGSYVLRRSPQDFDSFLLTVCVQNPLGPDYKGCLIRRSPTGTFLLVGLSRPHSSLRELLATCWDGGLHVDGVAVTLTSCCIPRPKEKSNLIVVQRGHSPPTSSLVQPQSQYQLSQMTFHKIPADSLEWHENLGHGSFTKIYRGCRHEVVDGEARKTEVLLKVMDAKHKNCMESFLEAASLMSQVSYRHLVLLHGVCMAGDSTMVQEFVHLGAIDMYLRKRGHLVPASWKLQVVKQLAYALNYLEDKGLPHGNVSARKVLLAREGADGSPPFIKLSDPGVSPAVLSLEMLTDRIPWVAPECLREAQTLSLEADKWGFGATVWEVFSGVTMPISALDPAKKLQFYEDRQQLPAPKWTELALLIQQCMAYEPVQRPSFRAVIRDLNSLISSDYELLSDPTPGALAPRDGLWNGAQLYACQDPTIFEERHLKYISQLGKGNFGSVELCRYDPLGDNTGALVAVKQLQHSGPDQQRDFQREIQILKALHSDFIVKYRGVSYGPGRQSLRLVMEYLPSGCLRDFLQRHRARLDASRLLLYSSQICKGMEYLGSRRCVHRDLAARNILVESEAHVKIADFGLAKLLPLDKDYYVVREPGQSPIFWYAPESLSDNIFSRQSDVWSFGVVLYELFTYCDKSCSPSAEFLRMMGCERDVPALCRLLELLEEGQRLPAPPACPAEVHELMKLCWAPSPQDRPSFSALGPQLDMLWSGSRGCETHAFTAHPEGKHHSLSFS

Chain of human JAK2 (O60674 whole entry, the tested form may be a part): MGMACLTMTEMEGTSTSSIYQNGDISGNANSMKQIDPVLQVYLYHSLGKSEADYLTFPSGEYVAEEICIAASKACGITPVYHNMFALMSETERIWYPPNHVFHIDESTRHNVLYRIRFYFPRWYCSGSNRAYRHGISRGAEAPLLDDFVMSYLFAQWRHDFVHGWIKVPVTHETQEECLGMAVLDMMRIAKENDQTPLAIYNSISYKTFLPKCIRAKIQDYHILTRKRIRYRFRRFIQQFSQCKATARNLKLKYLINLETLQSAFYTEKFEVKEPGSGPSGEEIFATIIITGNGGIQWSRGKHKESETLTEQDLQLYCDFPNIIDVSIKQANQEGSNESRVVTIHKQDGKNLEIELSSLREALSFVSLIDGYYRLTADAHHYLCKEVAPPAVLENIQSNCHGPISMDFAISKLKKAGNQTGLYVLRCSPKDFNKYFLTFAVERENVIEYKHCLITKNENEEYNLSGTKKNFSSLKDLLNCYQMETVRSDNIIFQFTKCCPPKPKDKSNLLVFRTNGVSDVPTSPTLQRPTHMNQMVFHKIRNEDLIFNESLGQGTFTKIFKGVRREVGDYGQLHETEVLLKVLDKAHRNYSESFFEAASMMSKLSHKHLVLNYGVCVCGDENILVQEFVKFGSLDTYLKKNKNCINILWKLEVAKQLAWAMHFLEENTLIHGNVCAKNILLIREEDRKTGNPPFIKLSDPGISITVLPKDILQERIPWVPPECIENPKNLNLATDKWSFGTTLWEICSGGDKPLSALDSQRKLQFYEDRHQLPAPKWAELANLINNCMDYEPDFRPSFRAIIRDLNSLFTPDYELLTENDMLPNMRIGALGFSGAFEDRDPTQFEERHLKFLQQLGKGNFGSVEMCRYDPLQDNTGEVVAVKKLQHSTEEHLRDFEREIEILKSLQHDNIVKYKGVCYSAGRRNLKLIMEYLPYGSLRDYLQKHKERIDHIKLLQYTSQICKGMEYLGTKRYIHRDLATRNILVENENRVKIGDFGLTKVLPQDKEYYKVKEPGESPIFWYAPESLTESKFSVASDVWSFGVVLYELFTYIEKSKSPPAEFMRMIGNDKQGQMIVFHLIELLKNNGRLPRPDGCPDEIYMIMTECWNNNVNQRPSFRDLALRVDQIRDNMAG
Chain of human JAK1 (P23458 whole entry): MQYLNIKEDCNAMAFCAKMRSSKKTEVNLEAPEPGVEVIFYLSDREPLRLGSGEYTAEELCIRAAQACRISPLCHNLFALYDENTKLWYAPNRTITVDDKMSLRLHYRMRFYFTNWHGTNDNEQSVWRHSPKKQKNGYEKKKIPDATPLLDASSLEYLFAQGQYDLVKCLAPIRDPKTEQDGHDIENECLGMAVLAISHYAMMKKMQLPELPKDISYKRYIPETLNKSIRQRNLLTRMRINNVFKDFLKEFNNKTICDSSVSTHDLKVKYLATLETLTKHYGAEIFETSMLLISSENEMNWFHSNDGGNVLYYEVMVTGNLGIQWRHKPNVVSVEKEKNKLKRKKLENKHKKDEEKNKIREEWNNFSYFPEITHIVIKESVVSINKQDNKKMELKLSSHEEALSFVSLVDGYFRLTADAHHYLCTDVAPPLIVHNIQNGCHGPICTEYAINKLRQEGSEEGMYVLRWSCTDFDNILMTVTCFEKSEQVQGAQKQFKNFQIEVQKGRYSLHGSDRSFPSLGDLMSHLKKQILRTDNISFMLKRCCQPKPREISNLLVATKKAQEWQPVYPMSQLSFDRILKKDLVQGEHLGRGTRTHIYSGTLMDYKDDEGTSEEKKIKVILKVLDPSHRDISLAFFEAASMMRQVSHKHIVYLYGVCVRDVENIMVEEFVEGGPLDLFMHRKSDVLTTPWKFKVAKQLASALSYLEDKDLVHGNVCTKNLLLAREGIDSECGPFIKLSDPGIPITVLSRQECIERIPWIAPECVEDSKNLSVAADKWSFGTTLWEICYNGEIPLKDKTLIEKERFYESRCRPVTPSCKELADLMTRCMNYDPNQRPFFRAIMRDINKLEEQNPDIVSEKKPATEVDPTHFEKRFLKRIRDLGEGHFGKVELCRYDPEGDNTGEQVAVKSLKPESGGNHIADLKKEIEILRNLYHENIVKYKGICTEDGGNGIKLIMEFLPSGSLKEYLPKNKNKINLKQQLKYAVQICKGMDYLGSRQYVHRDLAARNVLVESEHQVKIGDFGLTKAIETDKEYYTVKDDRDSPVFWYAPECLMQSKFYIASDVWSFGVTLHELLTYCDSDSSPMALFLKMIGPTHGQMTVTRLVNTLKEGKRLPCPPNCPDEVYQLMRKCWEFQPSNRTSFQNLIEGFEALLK
Chain of TYK2 JH2 domain (P29597 589-875): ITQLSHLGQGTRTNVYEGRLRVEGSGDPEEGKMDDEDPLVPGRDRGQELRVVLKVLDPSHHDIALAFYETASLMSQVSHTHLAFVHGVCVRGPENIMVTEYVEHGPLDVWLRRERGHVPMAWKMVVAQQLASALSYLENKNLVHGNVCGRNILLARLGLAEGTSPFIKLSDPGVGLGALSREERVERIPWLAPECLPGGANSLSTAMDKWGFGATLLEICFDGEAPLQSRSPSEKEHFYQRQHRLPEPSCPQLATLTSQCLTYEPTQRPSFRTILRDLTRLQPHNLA

What is called IC50 is the concentration that inhibits the measured activity by half. For the compound `CCC(=O)c1cnc(Nc2ccc([C@H](C)N(C)C)cn2)cc1Nc1cccc(-c2ncn(C)n2)c1OC` [Compound 9K], the IC50 is no less than 500 nM at human JAK1, no less than 500 nM against human JAK2, less than 5 nM on TYK2 JH2 domain and no less than 500 nM at human JAK3.

In the case of `CCC(=O)c1cnc(Nc2cc(CN)ncn2)cc1Nc1cccc(-c2ncn(C)n2)c1OC` [Compound 9LLLL], the IC50 is no less than 500 nM against human JAK1, no less than 500 nM against human JAK2, less than 5 nM at TYK2 JH2 domain and no less than 500 nM against human JAK3.

As to `CCC(=O)c1cnc(Nc2ccc([C@H](C)N3CC[C@H](O)C3)cn2)cc1Nc1cccc(-c2ncn(C)n2)c1OC` [Compound 9LL], the IC50 at human JAK1 is no less than 500 nM; against human JAK2, no less than 500 nM; on TYK2 JH2 domain it was less than 5 nM; at human JAK3, 50 to 500 nM.

Regarding `CCC(=O)c1cnc(Nc2cc(CNC)ncn2)cc1Nc1cccc(-c2ncn(C)n2)c1OC` [Compound 9MMMM], the half-maximal inhibitory concentration (IC50) against human JAK1 is no less than 500 nM; at human JAK2 it was no less than 500 nM; at TYK2 JH2 domain it was 5 to 50 nM; against human JAK3 it was no less than 500 nM.

Take `CCC(=O)c1cnc(Nc2ccc(C(C)(C)NC)nn2)cc1Nc1cccc(-c2ncn(C)n2)c1OC` [Compound 9MMM]: the IC50 against human JAK1 was no less than 500 nM; against human JAK2, no less than 500 nM; on TYK2 JH2 domain, 5 to 50 nM; against human JAK3, no less than 500 nM.

As to `CCC(=O)c1cnc(Nc2ccc([C@@H](C)N3CC[C@H](O)C3)cn2)cc1Nc1cccc(-c2ncn(C)n2)c1OC` [Compound 9MM], the IC50 was no less than 500 nM against human JAK1, no less than 500 nM against human JAK2, less than 5 nM at TYK2 JH2 domain and no less than 500 nM on human JAK3.

On to `CCC(=O)c1cnc(Nc2cc(CN3CCCC3)ncn2)cc1Nc1cccc(-c2ncn(C)n2)c1OC` [Compound 9NNNN], for which the IC50 against human JAK1 is no less than 500 nM; at human JAK2, no less than 500 nM; on TYK2 JH2 domain it was less than 5 nM; against human JAK3, no less than 500 nM.

`CCC(=O)c1cnc(Nc2ccc(C(C)(C)N(C)C)nn2)cc1Nc1cccc(-c2ncn(C)n2)c1OC` [Compound 9NNN]: the IC50 is no less than 500 nM against human JAK1, no less than 500 nM on human JAK2, 5 to 50 nM at TYK2 JH2 domain and no less than 500 nM on human JAK3.

With `CCC(=O)c1cnc(Nc2ccc([C@H](C)N3CC[C@@H](O)C3)cn2)cc1Nc1cccc(-c2ncn(C)n2)c1OC` [Compound 9NN], the IC50 on human JAK1 is no less than 500 nM; against human JAK2, no less than 500 nM; at TYK2 JH2 domain, less than 5 nM; against human JAK3, no less than 500 nM.

Take `CCC(=O)c1cnc(Nc2ccc(C(C)(C)N(C)C)cn2)cc1Nc1cccc(-c2ncn(C)n2)c1OC` [Compound 9N]: the IC50 against human JAK1 is no less than 500 nM; on human JAK2 it was no less than 500 nM; at TYK2 JH2 domain it was less than 5 nM; against human JAK3 it was no less than 500 nM.

Regarding `CCC(=O)c1cnc(Nc2cc(C(C)N)ncn2)cc1Nc1cccc(-c2ncn(C)n2)c1OC` (centres unmarked) [Compound 9OOOO], the half-maximal inhibitory concentration (IC50) against human JAK1 is no less than 500 nM; against human JAK2, no less than 500 nM; at TYK2 JH2 domain it was less than 5 nM; at human JAK3, no less than 500 nM.

As to `CCC(=O)c1cnc(Nc2ccc(CN3CCCC3)nn2)cc1Nc1cccc(-c2ncn(C)n2)c1OC` [Compound 9OOO], the IC50 at human JAK1 is no less than 500 nM; on human JAK2, no less than 500 nM; on TYK2 JH2 domain, 5 to 50 nM; against human JAK3 it was no less than 500 nM.

On to `CCC(=O)c1cnc(Nc2ccc([C@@H](C)N3CC[C@@H](O)C3)cn2)cc1Nc1cccc(-c2ncn(C)n2)c1OC` [Compound 9OO], for which the IC50 is no less than 500 nM on human JAK1, 50 to 500 nM on human JAK2, less than 5 nM on TYK2 JH2 domain and 50 to 500 nM at human JAK3.

With `CCC(=O)c1cnc(Nc2ccc(C3(N)CC3)cn2)cc1Nc1cccc(-c2ncn(C)n2)c1OC` [Compound 9O], the IC50 was no less than 500 nM on human JAK1, no less than 500 nM against human JAK2, less than 5 nM on TYK2 JH2 domain and no less than 500 nM on human JAK3.

Turning to `CCC(=O)c1cnc(Nc2ccc([C@H](C)N3C[C@@H](O)[C@H](O)C3)cn2)cc1Nc1cccc(-c2ncn(C)n2)c1OC` [Compound 9PP], the IC50 is no less than 500 nM against human JAK1, no less than 500 nM at human JAK2, 5 to 50 nM on TYK2 JH2 domain and 50 to 500 nM on human JAK3.

Regarding `CCC(=O)c1cnc(Nc2ccc(C3(NC)CC3)cn2)cc1Nc1cccc(-c2ncn(C)n2)c1OC` [Compound 9P], the IC50 is no less than 500 nM at human JAK1, no less than 500 nM at human JAK2, less than 5 nM at TYK2 JH2 domain and no less than 500 nM on human JAK3.

As for `CCC(=O)c1cnc(Nc2cc(C(C)N(C)C)ncn2)cc1Nc1cccc(-c2ncn(C)n2)c1OC` (centres unmarked) [Compound 9QQQQ], the IC50 against human JAK1 is no less than 500 nM; against human JAK2, no less than 500 nM; at TYK2 JH2 domain, less than 5 nM; against human JAK3, no less than 500 nM.

As to `CCC(=O)c1cnc(Nc2cnc(CN)cn2)cc1Nc1cccc(-c2ncn(C)n2)c1OC` [Compound 9QQQ], the IC50 against human JAK1 was no less than 500 nM; against human JAK2, no less than 500 nM; on TYK2 JH2 domain, less than 5 nM; at human JAK3, no less than 500 nM.

With `CCC(=O)c1cnc(Nc2ccc([C@@H](C)N3C[C@@H](O)[C@H](O)C3)cn2)cc1Nc1cccc(-c2ncn(C)n2)c1OC` [Compound 9QQ], the concentration for half-maximal inhibition (IC50) was no less than 500 nM on human JAK1, no less than 500 nM on human JAK2, 5 to 50 nM at TYK2 JH2 domain and 50 to 500 nM against human JAK3.

Take `CCC(=O)c1cnc(Nc2ccc(C3(N(C)C)CC3)cn2)cc1Nc1cccc(-c2ncn(C)n2)c1OC` [Compound 9Q]: the half-maximal inhibitory concentration (IC50) was no less than 500 nM against human JAK1, no less than 500 nM against human JAK2, less than 5 nM at TYK2 JH2 domain and no less than 500 nM against human JAK3.

As for `CCC(=O)c1cnc(Nc2ccc(CN(C)C)c(C(F)(F)F)n2)cc1Nc1cccc(-c2ncn(C)n2)c1OC` [Compound 9RRRR], the IC50 was no less than 500 nM against human JAK1, no less than 500 nM at human JAK2, 5 to 50 nM at TYK2 JH2 domain and no less than 500 nM on human JAK3.

For the compound `CCC(=O)c1cnc(Nc2cnc(CNC)cn2)cc1Nc1cccc(-c2ncn(C)n2)c1OC` [Compound 9RRR], the IC50 was no less than 500 nM at human JAK1, no less than 500 nM at human JAK2, less than 5 nM on TYK2 JH2 domain and no less than 500 nM against human JAK3.

For `CCC(=O)c1cnc(Nc2ccc(CN3CCCCC3)cn2)cc1Nc1cccc(-c2ncn(C)n2)c1OC` [Compound 9RR], the IC50 is no less than 500 nM against human JAK1, no less than 500 nM on human JAK2, less than 5 nM at TYK2 JH2 domain and no less than 500 nM at human JAK3.

For `CCC(=O)c1cnc(Nc2ccc(CN(C)C3CC3)cn2)cc1Nc1cccc(-c2ncn(C)n2)c1OC` [Compound 9R], the IC50 against human JAK1 is no less than 500 nM; against human JAK2, no less than 500 nM; at TYK2 JH2 domain, 5 to 50 nM; against human JAK3, no less than 500 nM.

For `CCC(=O)c1cnc(Nc2cc(C(F)(F)F)c(CN(C)C)cn2)cc1Nc1cccc(-c2ncn(C)n2)c1OC` [Compound 9SSSS], the IC50 against human JAK1 is no less than 500 nM; on human JAK2, no less than 500 nM; on TYK2 JH2 domain, 5 to 50 nM; on human JAK3 it was no less than 500 nM.

Take `CCC(=O)c1cnc(Nc2cnc(CN(C)C)cn2)cc1Nc1cccc(-c2ncn(C)n2)c1OC` [Compound 9SSS]: the IC50 on human JAK1 is no less than 500 nM; against human JAK2, no less than 500 nM; on TYK2 JH2 domain, less than 5 nM; on human JAK3, no less than 500 nM.

Take `CCC(=O)c1cnc(Nc2ccc(CN3CCOCC3)cn2)cc1Nc1cccc(-c2ncn(C)n2)c1OC` [Compound 9SS]: the concentration for half-maximal inhibition (IC50) was no less than 500 nM against human JAK1, no less than 500 nM against human JAK2, less than 5 nM on TYK2 JH2 domain and no less than 500 nM against human JAK3.

Take `CCC(=O)c1cnc(Nc2ccc(C(NC)C(F)(F)F)cn2)cc1Nc1cccc(-c2ncn(C)n2)c1OC` (centres unmarked) [Compound 9S]: the IC50 was no less than 500 nM against human JAK1, 50 to 500 nM at human JAK2, less than 5 nM on TYK2 JH2 domain and no less than 500 nM on human JAK3.

For the compound `CCC(=O)c1cnc(Nc2nccc(CN(C)C)c2F)cc1Nc1cccc(-c2ncn(C)n2)c1OC` [Compound 9TTTT], the IC50 at human JAK1 was no less than 500 nM; on human JAK2 it was no less than 500 nM; on TYK2 JH2 domain, 5 to 50 nM; against human JAK3, no less than 500 nM.

Regarding `CCC(=O)c1cnc(Nc2cnc(C(N)C(F)(F)F)cn2)cc1Nc1cccc(-c2ncn(C)n2)c1OC` (centres unmarked) [Compound 9TTT], the IC50 against human JAK1 was no less than 500 nM; at human JAK2, no less than 500 nM; at TYK2 JH2 domain, 5 to 50 nM; against human JAK3, no less than 500 nM.

Regarding `CCC(=O)c1cnc(Nc2ccc(CN3[C@H](C)COC[C@@H]3C)cn2)cc1Nc1cccc(-c2ncn(C)n2)c1OC` [Compound 9TT], the IC50 is no less than 500 nM at human JAK1, 50 to 500 nM on human JAK2, less than 5 nM at TYK2 JH2 domain and 50 to 500 nM against human JAK3.

For the compound `CCC(=O)c1cnc(Nc2ccc(CN(C)C(C)C)cn2)cc1Nc1cccc(-c2ncn(C)n2)c1OC` [Compound 9T], the IC50 against human JAK1 was no less than 500 nM; against human JAK2 it was no less than 500 nM; at TYK2 JH2 domain, less than 5 nM; at human JAK3 it was no less than 500 nM.

Regarding `CCC(=O)c1cnc(Nc2nc(CN(C)C)ccc2F)cc1Nc1cccc(-c2ncn(C)n2)c1OC` [Compound 9UUUU], the IC50 is no less than 500 nM against human JAK1, no less than 500 nM at human JAK2, 50 to 500 nM at TYK2 JH2 domain and no less than 500 nM on human JAK3.

For `CCC(=O)c1cnc(Nc2cnc(C(NC)C(F)(F)F)cn2)cc1Nc1cccc(-c2ncn(C)n2)c1OC` (centres unmarked) [Compound 9UUU], the IC50 against human JAK1 is no less than 500 nM; against human JAK2 it was no less than 500 nM; on TYK2 JH2 domain it was 5 to 50 nM; on human JAK3, no less than 500 nM.

For the compound `CCC(=O)c1cnc(Nc2ccc(CN3C[C@@H](C)O[C@@H](C)C3)cn2)cc1Nc1cccc(-c2ncn(C)n2)c1OC` [Compound 9UU], the IC50 at human JAK1 was no less than 500 nM; against human JAK2 it was no less than 500 nM; on TYK2 JH2 domain, less than 5 nM; against human JAK3, no less than 500 nM.
